This passage reports ring closure, yield of all isomers results from US8557798.

For the data set the following is noted: from COC(=O)c1cccc(CN2C(=O)NC(C)(c3cccc(CCCN)c3)C2=O)c1; amide bond; sodium methoxide; MeOH; 7.5 mM; 85.0 °C; 96.0 h.

`CC12NC(=O)N(Cc3cccc(c3)C(=O)NCCCc3cccc1c3)C2=O` (stereo not shown) came in with a ring closure, yield of all isomers of 48%.
